From patent US10330683B2, “Mutant smoothened and methods of using the same” (Genentech, Inc., priority 2015, dated 2019)
Entries after “also recorded” stand apart in the source; their conditions may differ.

Key:
[1] = test system: PPT CGNPs expressing vismodegib-resistant SMO mutants; assay: methyl-[3H]-thymidine incorporation (proliferation) of virally transduced PPT CGNPs after removal of SHH; assay type: cell-based, mice; conditions: 1 μM JQ1; FIG. 16B
Text: (§1) It has previously been noted that Hh-driven tumor cells rapidly lose their Hh pathway dependence during culturing (Sasai et al., 2006). However, CGNPs proliferate in vivo in a Hh dependent manner and maintain their Hh pathway dependence in culture for a finite period (Wechsler-Reya and Scott, 1999). CGNPs isolated from Ptch1loxp/loxp Tp53loxp/loxp Rosa26LSL-tdTomato (PPT) pups were infected with lentiviral constructs expressing a SMO variant together with an enhanced green fluorescent protein (eGFP)-Cre fusion protein (FIG. 12C). The Cre recombinase induces loss of Ptch1 and thus ensures that only transduced CGNPs can proliferate in the absence of exogenous Sonic hedgehog ligand (SHH; FIG. 11D). […] Proliferation by methyl-[3H]-thymidine incorporation was monitored, while Cre-dependent tandem dimer (td) Tomato expression enabled visualization and quantification of infected cells. This system also enabled better model patient genetics because most of the SMO mutations were identified in tumors that harbored TP53 mutations and were driven by loss of PTCH1. […] It was confirmed that CGNPs were infected at similar frequencies by fluorescence-activated cell sorting (FACS) analysis for Cre-dependent tdTomato reporter expression, and that the SMO variants were expressed at equivalent levels by quantitative reverse transcription (qRT) PCR.
(§2) Cerebella from post-natal day 5-7 Ptch1^loxp/loxp Rosa26^LSLtdTomato Tp53^loxp/loxp mice were dissociated in 0.05% Trypsin for 10 min at 37° C. Cells were collected by centrifugation at 514×g for 10 min at 4° C., resuspended in CGNP media (Neurobasal medium (Life Technologies) containing 1×B27 (without vitamin A; Life Technologies), 0.45% glucose (Sigma Aldrich), 25 mM KCl, 0.4% bovine serum albumin (Sigma Aldrich), 2 mM glutamine, 100 U/ml Penicillin (Life Technologies), 100 μg/ml Streptomycin (Life Technologies), 200 ng/ml octylated recombinant SHH) and filtered through a 0.45 μm filter (Falcon). Cells were plated in poly-D-lysine coated 6-well plates (Corning) at 5×10E5 cells/well and infected with lentivirus at a multiplicity of infection (MOI) of 1. After 24 hr, cells were harvested by trypsinization, collected in CGNP media and replated for downstream applications.
(§3) To examine the effects of HPIs on proliferation, virally transduced CGNPs were plated in poly-D-lysine-coated 96-well plates (Corning) at 25,000 cells/well in CGNP media without SHH. […] After 24 hr, cells were pulsed with 1 μCi/ml methyl-[^3H]-thymidine (Amersham/GE Healthcare) and cultured for an additional 16-24 hr. Cells were harvested onto 96-well filter plates (Perkin Elmer) using a Filtermate Cell Harvester (Perkin Elmer), and incorporated radioactivity was quantified by liquid scintillation spectrophotometry on a TopCount NXT (PerkinElmer).

[2] = test system: PPT CGNPs infected with SMO-WT and Cre; assay: as above; assay type: cell-based, mice
Text: as §1, §2, §3

SMO-I408V = target: T1, SMO-I408V (Homo sapiens, UniProt Q99835, I408V); assay: [3H]-vismodegib binding to HEK-293 cells transfected with SMO constructs; conditions: 5 nM [3H]-vismodegib, cell surface levels similar to SMO-WT, FIG. 12B
T1 construct: expressed in transfected cells; host or cells: HEK-293 cells
Protocol: (§4) SMO mutants were generated in pRK5-SMO vectors as described (Dijkgraaf et al., 2011; Yauch et al., 2009) and were either utilized in Gli-luciferase reporter assays as described (Dijkgraaf et al., 2011) or cloned into lentiviral vectors for transduction of primary CGNP cultures. Proliferation was assayed using methyl-[3H]-thymidine incorporation (Kool et al., 2014).
(§5) 2×10E6 HEK-293 cells were seeded into 10-cm plates and transfected 16 hours later with 3 μg of either empty vector or SMO expression construct using GeneJuice (Novagen). Cells were harvested 40 hours later in PBS with 1 mM EDTA and fixed in PBS with 4% PFA for 10 minutes at room temperature (RT), after which they were washed 3× in PBS with 1 mM EDTA and plated into 96-well plates at 100,000 cells per well. […] of MicroScint fluid (Perkin Elmer) was added per well and counts per minute were assessed using a PerkinElmer TopCount NXT. All samples were analyzed in triplicate.

SMO-E518K and E518A = conditions: cited from earlier work
[3] = test system: SMO-D473 mutants (all aa except P); conditions: cited from earlier work
activating SMO mutants = assay: [3H]-vismodegib binding to HEK-293 cells transfected with SMO constructs; set-up: species or system human; conditions: all activating mutants tested; cell surface expression comparable to SMO-WT; FIG. 15C
Protocol: as §4, §5

[4] = test system: PPT CGNPs infected with SMO-C469Y; assay: methyl-[3H]-thymidine incorporation (proliferation) of virally transduced PPT CGNPs after removal of SHH; assay type: cell-based, mice; conditions: 5 μM vismodegib
Text: as §1, §2, §3

[5] = test system: PPT CGNPs infected with SMO DBP mutations; assay: as above; assay type: cell-based, mice; conditions: all DBP mutations; high levels of vismodegib (>1 μM); FIG. 12D
Text: as §1, §2, §3

[6] = test system: SMOW535L expressing CGNPs; assay: as above; assay type: cell-based, mice; conditions: high concentrations of vismodegib, FIGS. 14D and 15E
Text: (§6) It has previously been noted that Hh-driven tumor cells rapidly lose their Hh pathway dependence during culturing (Sasai et al., 2006). However, CGNPs proliferate in vivo in a Hh dependent manner and maintain their Hh pathway dependence in culture for a finite period (Wechsler-Reya and Scott, 1999). CGNPs isolated from Ptch1loxp/loxp Tp53loxp/loxp Rosa26LSL-tdTomato (PPT) pups were infected with lentiviral constructs expressing a SMO variant together with an enhanced green fluorescent protein (eGFP)-Cre fusion protein (FIG. 12C). The Cre recombinase induces loss of Ptch1 and thus ensures that only transduced CGNPs can proliferate in the absence of exogenous Sonic hedgehog ligand (SHH; FIG. 11D). […] Proliferation by methyl-[3H]-thymidine incorporation was monitored, while Cre-dependent tandem dimer (td) Tomato expression enabled visualization and quantification of infected cells.
as §2, with “After 24 hr, cells were harvested by trypsinization, collected in CGNP media and replated for downstream applications.” left out
(§7) To examine the effects of HPIs on proliferation, virally transduced CGNPs were plated in poly-D-lysine-coated 96-well plates (Corning) at 25,000 cells/well in CGNP media without SHH. […] Cells were harvested onto 96-well filter plates (Perkin Elmer) using a Filtermate Cell Harvester (Perkin Elmer), and incorporated radioactivity was quantified by liquid scintillation spectrophotometry on a TopCount NXT (PerkinElmer).

[7] = test system: SMO-A459V expressing CGNPs; assay: as above; assay type: cell-based, mice; conditions: high concentrations of vismodegib, FIGS. 14D and 15E
Text: as §6
as §2, with “After 24 hr, cells were harvested by trypsinization, collected in CGNP media and replated for downstream applications.” left out
as §7

[8] = test system: SMO-T241M expressing CGNPs; assay: as above; assay type: cell-based, mice; conditions: high concentrations of vismodegib, FIGS. 14D and 15E
Text: as §6
as §2, with “After 24 hr, cells were harvested by trypsinization, collected in CGNP media and replated for downstream applications.” left out
as §7

SMO-D384N [9] = target: T2, SMO-D384N (Homo sapiens, UniProt Q99835, D384N); assay: Gli-luciferase based Hh reporter assay in C3H10T½ cells transfected with SMO constructs; assay type: cell-based; conditions: 1 μM vismodegib, FIG. 13C
T2 construct: expressed in transfected cells; host or cells: C3H10T½ cells (mouse)
Protocol: as §4
(§8) C3H10T½ cells (ATCC) were seeded into six-well plates at 1.75×10E5 cells/well in DMEM High Glucose with 4 mM glutamine, 10 mM Hepes pH 7.2 and 10% FBS. After 16 h cells were transfected with 400 ng of expression construct, 400 ng of 9×-Gli-BS and 200 ng of pRL-TK per well using GeneJuice Transfection Reagent (Novagen). For the PTCH1 inhibition experiments, cells were transfected with 200 ng SMO expression construct and an additional 200 ng of DNA containing varying ratios of PTCH1 to empty vector. Six hours later, cells from one well were trypsinized and redistributed over four wells of a 12-well plate. After 16 hours the FBS content of the culture medium was reduced to 0.5% to induce formation of primary cilia, and small molecule Hh inhibitors were added at indicated concentrations. Firefly luciferase activity was determined 24 hours later with the Dual-Glo Luciferase Assay System (Promega) and read using a Wallac EnVision plate reader (Perkin Elmer). Values were divided by renilla luciferase activities to normalize for transfection efficiency. Individual experiments were carried out in duplicate or triplicate and repeated at least once. Dose response data were fit to a 4-parameter equation in GraphPad Prism: […]
(§9) The top and bottom (B) values were constrained to be […] for each sample. ‘H’ is the Hill Slope.

SMO-S387N [10] = target: T3, SMO-S387N (Homo sapiens, UniProt Q99835, S387N); assay: as above; assay type: cell-based; conditions: 1 μM vismodegib, FIG. 13C
T3 construct: expressed in transfected cells; host or cells: C3H10T½ cells (mouse)
Protocol: as §4, §8, §9

SMO-N219D [11] = target: T4, SMO-N219D (Homo sapiens, UniProt Q99835, N219D); assay: as above; assay type: cell-based; conditions: 1 μM vismodegib, FIG. 13C
T4 construct: expressed in transfected cells; host or cells: C3H10T½ cells (mouse)
Protocol: as §4, §8, §9

SMO-L515A = SMO-L515A (Homo sapiens, UniProt Q99835, L515A); conditions: L515A expressed, activating; 1 mM vismodegib; cited from earlier work
SMO-D473H = SMO-D473H (Homo sapiens, UniProt Q99835, D473H); conditions: cited from earlier work
[12] = test system: metastatic and locally advanced BCC; conditions: cited from earlier work
SMO-A459V = target: T5, SMO-A459V (Homo sapiens, UniProt Q99835, A459V); assay: Gli-luciferase based Hh reporter assay in C3H10T½ cells transfected with SMO constructs; assay type: cell-based, mouse; conditions: GLI1 luciferase reporter, FIGS. 5A-5C
T5 construct: expressed in transfected cells; host or cells: C3H10T½ cells (mouse)
Protocol: as §4
as §8, with “Elmer).” for “Elmer). Values were divided by renilla luciferase activities to normalize for transfection efficiency. Individual experiments were carried out in duplicate or triplicate and repeated at least once. Dose response data were fit to a 4-parameter equation in GraphPad Prism:”

medulloblastoma = conditions: initial response; no durable response, relapse of the tumor; cited from earlier work
SMO-S387N [13] = conditions: cited from earlier work
SMO-N219D [14] = conditions: cited from earlier work
SMO-L221R = conditions: cited from earlier work
SMO-D384N [15] = conditions: cited from earlier work

T4 sequence (Q99835 28-787 N219D): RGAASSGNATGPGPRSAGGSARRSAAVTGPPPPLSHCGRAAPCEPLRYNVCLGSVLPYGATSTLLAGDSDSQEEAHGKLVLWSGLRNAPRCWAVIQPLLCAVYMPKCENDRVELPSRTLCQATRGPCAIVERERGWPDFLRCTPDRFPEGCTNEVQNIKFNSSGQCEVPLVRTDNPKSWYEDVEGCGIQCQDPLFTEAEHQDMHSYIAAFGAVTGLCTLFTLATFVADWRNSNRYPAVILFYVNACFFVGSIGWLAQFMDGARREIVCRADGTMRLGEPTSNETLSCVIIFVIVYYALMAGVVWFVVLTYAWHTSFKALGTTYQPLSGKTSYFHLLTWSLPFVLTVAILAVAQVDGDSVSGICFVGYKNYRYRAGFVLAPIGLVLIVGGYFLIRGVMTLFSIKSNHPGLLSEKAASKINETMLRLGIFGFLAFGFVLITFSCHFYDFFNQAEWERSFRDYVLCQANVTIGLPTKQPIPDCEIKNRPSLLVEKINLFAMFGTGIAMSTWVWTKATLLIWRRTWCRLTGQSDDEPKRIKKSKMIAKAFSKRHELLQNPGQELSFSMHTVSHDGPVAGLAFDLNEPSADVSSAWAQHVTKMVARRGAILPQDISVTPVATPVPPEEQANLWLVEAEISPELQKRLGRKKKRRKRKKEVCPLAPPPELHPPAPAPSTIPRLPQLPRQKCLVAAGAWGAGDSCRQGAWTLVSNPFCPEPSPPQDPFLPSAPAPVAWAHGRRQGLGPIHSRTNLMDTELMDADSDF
T2 sequence (Q99835 28-787 D384N): as the sequence (Q99835 28-787 N219D) above, with D192N, D357N counted along it
T3 sequence (Q99835 28-787 S387N): as the sequence (Q99835 28-787 N219D) above, with D192N, S360N counted along it
T1 sequence (Q99835 28-787 I408V): as the sequence (Q99835 28-787 N219D) above, with D192N, I381V counted along it
Sequence of SMO-L515A (Q99835 28-787 L515A): as the sequence (Q99835 28-787 N219D) above, with D192N, L488A counted along it
T5 sequence (Q99835 28-787 A459V): as the sequence (Q99835 28-787 N219D) above, with D192N, A432V counted along it
Sequence of SMO-D473H (Q99835 28-787 D473H): as the sequence (Q99835 28-787 N219D) above, with D192N, D446H counted along it

Cc1sc2c(c1C)C(c1ccc(Cl)cc1)=N[C@@H](CC(=O)OC(C)(C)C)c1nnc(C)n1-2 [JQ1]
proliferation of PPT CGNPs expressing vismodegib-resistant SMO mutants [1]: reduced proliferation
residual proliferation in SMO-WT ([2]; 1 μM JQ1 compared with 1 μM vismodegib, FIG. 16B): less residual proliferation

CS(=O)(=O)c1ccc(C(=O)Nc2ccc(Cl)c(-c3ccccn3)c2)c(Cl)c1 [vismodegib]
binding of [3H]-labeled vismodegib (SMO-I408V): impaired
sensitivity to vismodegib (SMO-E518K and E518A): reduced sensitivity to
sensitivity to vismodegib [3]: reduce sensitivity to
vismodegib binding (activating SMO mutants): impaired
proliferation in the presence of vismodegib [4]: continued to proliferate at near untreated levels
IC50 ([2]; Mus musculus, SMO-WT and Cre, FIG. 12D): ~0.022 µM
vismodegib concentration at which proliferation was maximally inhibited ([2]; SMO-WT and Cre): 100 nM
proliferation in the presence of vismodegib [5]: continuing to proliferate
proliferation in the presence of vismodegib [6]: continued to proliferate
proliferation in the presence of vismodegib [7]: continued to proliferate
proliferation in the presence of vismodegib [8]: continued to proliferate
sensitivity to vismodegib compared to SMO-WT (SMO-D384N [9]): reduced sensitivity; also recorded: D384N reduced
sensitivity to vismodegib compared to SMO-WT (SMO-S387N [10]): reduced sensitivity; also recorded: S387N reduced
sensitivity to vismodegib compared to SMO-WT (SMO-N219D [11]): reduced sensitivity; also recorded: N219D reduced
inhibition by vismodegib (SMO-L515A): activating, sensitive
drug binding in vitro (SMO-D473H): abrogate drug binding
clinical response of BCC patients treated with vismodegib ([12]; majority of BCC patients, complete and partial responses): clinical benefit
advanced BCC patients that develop resistance to vismodegib ([12]; within the first year of treatment, preliminary estimate): up to 20%
sensitivity to vismodegib (SMO-A459V): decreased sensitivity
response of a patient to treatment (medulloblastoma): dramatic response

Cc1c(C(=O)Nc2ccc(N3C[C@@H](C)O[C@@H](C)C3)nc2)cccc1-c1ccc(OC(F)(F)F)cc1 [LDE-225]
sensitivity to LDE-225 (SMO-S387N [13]): S387N reduced
sensitivity to LDE-225 (SMO-N219D [14]): N219D reduced
sensitivity to LDE-225 (SMO-L221R): L221R reduced
sensitivity to LDE-225 (SMO-D384N [15]): D384N reduced
